Assay [1] relates to Leishmania donovani axenic amastigote parasites. Nature of the assay: Leishmania donovani axenic amastigote proliferation assay. It counts as cell-based. The method, then: Leishmania Donovani Axenic Amastigote Proliferation Assay
Leishmania donovani axenic amastigote parasites are grown at 37° C., 5% CO2 in media made of RPMI 1640, 4 mM L-glutamine, 20% heat inactivated FBS, 100 units/ml of penicillin and 100 μg/ml of streptomycin, 23 μM Folic Acid, 100 μM Adenosine, 22 mM D-glucose, 25 mM MES. The pH of media is adjusted to 5.5 at 37° C. using HCl. 20 μL of media is first dispensed into 384 well plates and 100 nL of the compounds of invention in DMSO are added to the plate wells. At the same time control compounds and DMSO are added to plates to serve as the positive and negative controls, respectively. 40 μL of parasite culture (9600 parasites) are then added to the plate wells. The plates are then placed into incubators. After 2 day incubation, 20 μL of Cell TiterGlo (Promega) is added to the plate wells. The luminescence signal of each well is measured using the Envision reader (Perkin Elmer). The percentage inhibition of 50%, EC50, is calculated for each of the compounds.

Assay [2] concerns L. donovani HU3 strain in mouse peritoneal macrophages. The assay is described as follows: Assay for proliferation of Leishmania parasites in mouse peritoneal macrophages. The settings on record: Leishmania donovani, Peritoneal macrophage. The assay is classed as cell-based, Leishmania donovani. An excerpt:
Assay for Proliferation of Leishmania Parasites
The activity of a compound according to the present invention for inhibition of parasitemai can be assessed by the parasite proliferation assay. The assay measures the increase in the parasite number in the assayed plate well using a DNA intercalating dye, SYBR Green I® dye (INVITROGEN) to stain Leishmania cell nuclei. It is understood that the assays illustrate the invention without in any way limiting the scope of the invention.
L. donovani HU3 strain is propagated by infecting BALB/c mice through tail vein injection with 10^7 Leishmania parasites. Infected mice are allowed to develop infection during 9-11 weeks post-infection. During this time, the parasites accumulate in the infected mouse spleens to large numbers, and the infected mice serve as the source of parasites for the in vitro measurement of compound efficacies. To assay a compound for anti-leishmanial activity, peritoneal macrophages isolated from non-infected BALB/c mice are seeded into 384-well plates at density 2×10^4 macrophages per well in […] of medium (RPMI 1640, 10% […], 10 mM HEPES, 1 mM sodium pyruvate, 1% Pen/Strep). Subsequently, the seeded plates are placed into an incubator set to maintain 37° C. temperature and atmosphere with 5% CO2. The next day, Leishmania parasites are isolated from the spleens of mice infected for 9-11 weeks and 4×10^5 isolated parasites in […] of the above media are added to each plate well. Plates are then returned into incubators and infection is allowed to proceed for 24 hours. After the infection of macrophages is completed, […] of compounds of the invention in the above medium, which also contains 5% DMSO, are added to plate wells containing infected macrophages. At the same time control compounds (miltefosine and amphotericin B) and DMSO are added to plates to serve as the positive and negative controls, respectively. After the compound addition, the plates are returned into incubator and cells infected with parasites are cultured for 5 days. At the end of cultivation, […] of 8% paraformaldehyde is added to plate wells and incubated for 15 min at room temperature. Following the incubation, the paraformaldehyde from plate wells is aspirated, and […] of PBS containing 0.2% Triton X-100 is added to wells. After 15 min incubation, the solution is aspirated from wells again, and replaced with SybrGreen Dye solution in PBS (1:125,000 dilution). Infected cells are imaged with Evotec Opera high-content microscope, and the number of parasites in well is determined by counting parasite nuclei visualized by staining with SybrGreen dye. The percentage inhibition of 50%, EC50, is calculated for each compound.
The inhibitory efficacy of the compounds of the invention in delaying the proliferation of L. donovani in mouse peritoneal macrophages is provided in Table I, infra.

Setting [3] is: axenic amastigotes in vitro, read-out: L. donovani amastigotes EC50.
[4] abbreviates: read-out: L. donavani Macrophage EC50.

Read-outs that look alike come from different tables or passages of the source.

The values that follow come from US9233961B2, “Compounds and compositions for the treatment of parasitic diseases” (Novartis AG, priority 2013, dated 2016).

In the case of `CC(C)OC(=O)Nc1ccc(Cl)c(-c2nc3ncc(C#N)cc3[nH]2)c1` [Example 287, Propan-2-yl N-(4-chloro-3-{6-cyano-1H-imidazo[4,5-b]pyridin-2-yl}phenyl)carbamate], the EC50 (in general, the concentration that produces a half-maximal response) in assay [1] (setting [3]) is 1440 nM; in assay [2] (120 h, L. donovani in mouse peritoneal macrophages, 5 days culture, SybrGreen parasite nuclei count, read-out: EC50), ~80 nM; in assay [2] (setting [4]) it was 78 nM.
With `O=C(Nc1ccc(C(F)(F)F)cc1)Nc1ccc(F)c(-c2nc3ncc(-c4ccc(CCN5CCOCC5)cc4)cc3o2)c1` [Example 389, 3-[4-Fluoro-3-(6-{4-[2-(morpholin-4-yl)ethyl]phenyl}-[3]oxazolo[4,5-b]pyridin-2-yl)phenyl]-1-[4-(trifluoromethyl)phenyl]urea], the EC50 came out at 11600 nM in assay [1] (setting [3]) and 11400 nM in assay [2] (setting [4]).
`O=C(Nc1ccc(Cl)c(-c2nc3ncc(-c4cccc(OCCN5CCOCC5)c4)cc3[nH]2)c1)N1CCCC1` [Compound 301]: the results for the concentration for a half-maximal effect (EC50) in assay [1] (setting [3]) and in assay [2] (setting [4]) were 910 nM and 1050 nM, respectively.
Turning to `Cc1cnc2nc(-c3cc(NC(=O)c4cc5ccccn5n4)ccc3F)[nH]c2c1` [Compound 274], the values for the EC50 in assay [1] (setting [3]) and in assay [2] (setting [4]) were 17000 nM and 26700 nM, respectively.
With `Nc1ncc(-c2cnc3nc(-c4cc(NC(=O)c5ccco5)ccc4Cl)[nH]c3c2)cn1` [Compound 17], the EC50 in assay [1] (setting [3]) stood at 480 nM; in assay [2] (setting [4]), 1570 nM.
For `CCOC(=O)Nc1ccc(Cl)c(-c2nc3ncc(C#N)cc3[nH]2)c1` [Compound 289], the EC50 amounted to 4200 nM in assay [1] (setting [3]) and 8100 nM in assay [2] (setting [4]).
Taken in the same sequence, the figures for `C[C@@H](CO)NCc1cnc2nc(-c3cc(NC(=O)c4ccco4)ccc3Cl)[nH]c2c1` [Compound 38] were > 25000 nM and > 50000 nM.
For `O=C(Nc1ccc(Cl)c(-c2nc3ncc(-c4ccc5c(c4)OCO5)cc3[nH]2)c1)c1ccco1` [Compound 27], the EC50 in assay [1] (setting [3]) is 2660 nM; in assay [2] (setting [4]), 24400 nM.
Consider `CC(C)OC(=O)Nc1ccc(Cl)c(-c2nc3ncc(C#N)cc3n2C(=O)OC(C)C)c1` [Compound 288], for which the EC50 in assay [1] (setting [3]) stood at 1590 nM; in assay [2] (setting [4]), 130 nM.
`Cc1cnc2nc(-c3cc(NC(=O)c4ncco4)ccc3Cl)[nH]c2c1` [Compound 104]: the EC50 was > 25000 nM in assay [1] (setting [3]) and > 50000 nM in assay [2] (setting [4]).
For the compound `CC(C)OC(=O)Nc1ccc(Cl)c(-c2nc3ncc(-c4ccccc4NC(=O)CCN)cc3[nH]2)c1` [Compound 342], the figures for the EC50 in assay [1] (setting [3]) and in assay [2] (setting [4]) were > 25000 nM and 39100 nM, respectively.
On to `COCCOc1ccc(-c2cnc3nc(-c4cc(NC(=O)N5CCCC5)ccc4F)[nH]c3c2)cc1` [Compound 312], for which the figures for the EC50 in assay [1] (setting [3]) and in assay [2] (setting [4]) were 1750 nM and 3700 nM, respectively.
Taken in the same sequence, the figures for `CC(C)N(C(=O)Nc1ccc(F)c(-c2nc3ncc(Br)cc3[nH]2)c1)C(C)C` [Compound 362] were > 25000 nM and 7500 nM.
For `COC(=O)Nc1ccc(-c2cnc3nc(-c4cc(NC(=O)OC(C)C)ccc4Cl)[nH]c3c2)cc1` [Compound 341, methyl N-{4-[2-(2-chloro-5-{[(propan-2-yloxy)carbonyl]amino}phenyl)-1H-imidazo[4,5-b]pyridin-6-yl]phenyl}carbamate], the EC50 was ~80 nM in assay [1] (48 h, L. donovani axenic amastigotes, 2 day incubation, Cell TiterGlo luminescence, read-out: EC50); 80 nM in assay [1] (setting [3]); 230 nM in assay [2] (setting [4]).
Turning to `CN(C)c1ccc(-c2cnc3nc(-c4cc(NC(=O)c5ccco5)ccc4Cl)[nH]c3c2)cc1` [Compound 67], the EC50 in assay [1] (setting [3]) is 2120 nM; in assay [2] (setting [4]), 2500 nM.
As to `Cc1cnc2nc(-c3cc(NC(=O)c4ccns4)ccc3Cl)[nH]c2c1` [Compound 91], the EC50 was found to be 3200 nM in assay [1] (setting [3]) and 5600 nM in assay [2] (setting [4]).
Regarding `Cc1cnc2nc(-c3cc(NC(=O)N4CC[C@H](F)C4)ccc3Cl)[nH]c2c1` [Compound 235], the values for the EC50 in assay [1] (setting [3]) and in assay [2] (setting [4]) were 3500 nM and 8800 nM, respectively.
Regarding `O=C(Nc1ccc(Cl)c(-c2nc3ncc(C(F)(F)F)cc3[nH]2)c1)c1ccccc1Cl` [Compound 278], the EC50 in assay [1] (setting [3]) was > 25000 nM; in assay [2] (setting [4]), 3800 nM.
`Cc1ccc(C(=O)Nc2ccc(F)c(-c3nc4ncc(-c5ccsc5)cc4[nH]3)c2)o1` [Example 381, N-{4-fluoro-3-[6-(thiophen-3-yl)-1H-imidazo[4,5-b]pyridin-2-yl]phenyl}-5-methylfuran-2-carboxamide]: the values for the EC50 in assay [1] (setting [3]) and in assay [2] (setting [4]) were 2500 nM and 1600 nM, respectively.
Take `O=C(Nc1ccc(Cl)c(-c2nc3ncc(-c4ccc(OCCn5ccnc5)cc4)cc3[nH]2)c1)c1ccco1` [Compound 71]: the EC50 in assay [1] (setting [3]) came out at 4000 nM; in assay [2] (setting [4]), 1860 nM.
Consider `O=C(Nc1ccc(Cl)c(-c2nc3ncc(-c4ccc(OCC5CCOCC5)cc4)cc3[nH]2)c1)c1ccco1` [Compound 26], for which the concentration for a half-maximal effect (EC50) in assay [1] (setting [3]) came out at 680 nM; in assay [2] (setting [4]), 2170 nM.
As to `CC(C)OC(=O)Nc1ccc(Cl)c(-c2nc3ncc(-c4ccccc4N)cc3[nH]2)c1` [Compound 334], the EC50 in assay [1] (setting [3]) was found to be 260 nM; in assay [2] (setting [4]) it was 990 nM.
With `Cc1cnc2nc(-c3cc(NC(=O)CCCN4CCOCC4)ccc3Cl)[nH]c2c1` [Compound 132], the EC50 in assay [1] (setting [3]) is > 25000 nM; in assay [2] (setting [4]), > 50000 nM.
Taken in the same sequence, the figures for `COC(=O)c1ccc(-c2cnc3nc(-c4cc(NC(=O)c5ccco5)ccc4Cl)[nH]c3c2)cc1` [Compound 35] were 234 nM and 2110 nM.
For `O=C(Nc1ccc(Cl)c(-c2nc3ncc(-c4ccc(OCCn5cccn5)cc4)cc3[nH]2)c1)c1ccco1` [Compound 40] the same measures were 610 nM and 970 nM.
For `Cc1cc(COc2ccc(-c3cnc4nc(-c5cc(NC(=O)c6ccco6)ccc5Cl)[nH]c4c3)cc2)no1` [Compound 44] the same measures were 283 nM and 820 nM.
Take `Cc1cnc2nc(-c3cc(NC(=O)c4ccc(S(C)(=O)=O)nc4)ccc3Cl)[nH]c2c1` [Compound 136]: the EC50 in assay [1] (setting [3]) was > 25000 nM; in assay [2] (setting [4]), > 50000 nM.
With `Cc1cc(-c2cnc3nc(-c4cc(NC(=O)c5ccco5)ccc4Cl)[nH]c3c2)cc(C)n1` [Compound 39], the values for the EC50 in assay [1] (setting [3]) and in assay [2] (setting [4]) were 570 nM and 9600 nM, respectively.
As for `C[Si](C)(C)CCOCn1cnc(-c2cnc3nc(-c4cc(NC(=O)N5CCCC5)ccc4Cl)[nH]c3c2)c1` [Compound 306], the EC50 in assay [1] (setting [3]) was determined as 207 nM; in assay [2] (setting [4]), 181 nM.
Consider `CC(=O)Nc1ccc(-c2cnc3nc(-c4cc(NC(=O)Nc5ccc(C(F)(F)F)cc5)ccc4F)oc3c2)cc1` [Compound 401], for which the EC50 amounted to 4700 nM in assay [1] (setting [3]) and 3120 nM in assay [2] (setting [4]).
For `O=C(Nc1ccc(Cl)c(-c2nc3ncc(C(F)(F)F)cc3[nH]2)c1)c1cncc(F)c1` [Compound 283], the EC50 was 4000 nM in assay [1] (setting [3]) and 11400 nM in assay [2] (setting [4]).
Take `Cc1cnc2nc(-c3cc(NC(=O)c4occc4C)ccc3Cl)[nH]c2c1` [Compound 130]: the EC50 was 2010 nM in assay [1] (setting [3]) and 15700 nM in assay [2] (setting [4]).
Consider `CN(C)c1ccc(-c2cnc3nc(-c4cc(NC(=O)Nc5ccc(C(F)(F)F)cc5)ccc4F)oc3c2)cc1` [Compound 390], for which the results for the EC50 in assay [1] (setting [3]) and in assay [2] (setting [4]) were 12600 nM and 18200 nM, respectively.
Consider `CC(C)OC(=O)Nc1ccc(Cl)c(-c2nc3ncc(-c4ccccc4)cc3[nH]2)c1` [Example 333, Propan-2-yl N-(4-chloro-3-{6-phenyl-1H-imidazo[4,5-b]pyridin-2-yl}phenyl)carbamate], for which the EC50 in assay [1] (setting [3]) amounted to 660 nM; in assay [2] (setting [4]) it was 48 nM.
As to `CC(=O)Nc1ccc(F)c(-c2nc3ncc(C)cc3[nH]2)c1` [Compound 272], the figures for the EC50 in assay [1] (setting [3]) and in assay [2] (setting [4]) were > 25000 nM and > 50000 nM, respectively.
On to `O=C(Nc1cccc(-c2nc3ncc(-c4ccc(OC(F)(F)F)cc4)cc3[nH]2)c1)c1ccco1` [Compound 41], for which the figures for the EC50 in assay [1] (setting [3]) and in assay [2] (setting [4]) were 5900 nM and 2200 nM, respectively.
